Assays:
[1] = test system: short term T cell lines from breast or ovarian cancer patients; assay: IFN-γ ELISpot analysis of short term T cell lines (peptide versus protein fragment; natural processing); format: cell-based, human; settings: T cell lines respond to culture peptide and to protein fragment; FIGS. 5 and 6
Text: IFN-γ ELISpot analysis of short term T cell lines generated against HER-2/neu peptides, p53 (Panel A), p83 (Panel B), p88 (Panel C) and p885 (Panel D). […] Each bar is the mean (s.e.m.) of three replicates.
FIG. 6 is identical to FIG. 5 except that the results were obtained using IGFBP-2 derived helper epitopes.

[2] = test system: 15 different HLA-DR molecules; assay: HLA-DR binding assays, panel of 15 different HLA-DR molecules (breadth of binding); settings: number of the 15 HLA-DR molecules bound (binders: 1000 nM or better)
[3] = target: T1, purified HLA DRB5*0101 (Homo sapiens, UniProt P01903+Q30154); assay: HLA-DR radioligand binding inhibition assay, DRB5*0101; settings: IC50 nM purified HLA DRB5 *0101, purified HLA DRB5*0101
T1 construct: purified from EBV transformed homozygous cell lines or single MHC allele transfected 721.221, C1R, or fibroblast lines; made in house
Method in brief: (§1)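 Bound radioactivity is read after 3-hour capture of complexes in 0.05% NP40/PBS on antibody-coated plates. Binding reactions pair 1-10 nM labeled peptide with 1 μM to 1 nM HLA-DR for two days.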

[4] = target: T2, purified HLA DRB1*1501 (Homo sapiens, UniProt P01903+P01911); assay: HLA-DR radioligand binding inhibition assay, DRB1*1501
T2 construct: purified from EBV transformed homozygous cell lines or single MHC allele transfected 721.221, C1R, or fibroblast lines; made in house
Method in brief: as §1

[5] = target: T3, purified HLA DRB1*0301 (Homo sapiens, UniProt P01903+P01911, A100K/A102G/A103R/A169T/F55Y/I96L/K41T/L162R/M171V/P40S/Q125H/Q178H/Q39Y/R42S/S66N/T106N/T262R/W38E/Y61H); assay: HLA-DR radioligand binding inhibition assay, DRB1*0301; settings: IC50 nM purified HLA DRB1 *0301, purified HLA DRB1*0301
T3 construct: purified from EBV transformed homozygous cell lines or single MHC allele transfected 721.221, C1R, or fibroblast lines; made in house
Experimental: (§2) Instead, wells of an opaque white 96-well Optiplate (Packard) are coated with 3 μg (100 μl@ 30 μg/ml) of HLA-specific antibody (Ab) that “capture” complexes of radiolabeled MHC and unlabeled peptide transferred from the molecular binding assay plate in 100 μl of 0.05% NP40/PBS. After a 3-hour incubation period, the supernatant is decanted and scintillation fluid (Microscint 20) added. Captured complexes are then measured on a microplate scintillation and luminescence counter (TopCount NXTTM; Packard).
(§3) HLA-DR purification. Fifteen distinct HLA-DR molecules were used in quantitative assays to measure the binding of peptides to solubilized HLA-DR molecules. […] Briefly, columns of inactivated Sepharose CL4B and Protein A Sepharose were used as pre-columns. HLA-DR molecules were captured by passage of lysates over LB3.1 monoclonal antibody (anti-HLA-DRA) columns. Antibody columns were washed with 10 mM Tris-HCL, pH8.0 with 1% (v/v) NP-40, followed by PBS containing 0.4% (w/v) n-octylglucoside.
(§4) Briefly, 1-10 nM of radiolabeled peptide was co-incubated for 2 days at either room temperature or 37° C. with 1 μM to 1 nM purified HLA-DR molecules in the presence of a cocktail of protease inhibitors. Assays were performed at various pH conditions, ranging from pH 4 to pH 7. […] After incubation, the percentage of HLA-DR-bound radioactivity is determined by capturing HLA-DR/peptide complexes on Optiplates (Packard Instruments, Meriden, Conn.) coated with the LB3.1 antibody and determining bound counts per minute using the TopCount microscintillation counter (Packard Instruments).

[6] = target: T4, purified HLA DRB3*0101 (Homo sapiens, UniProt P01903+P79483); assay: HLA-DR radioligand binding inhibition assay, DRB3*0101; settings: IC50 nM purified HLA DRB3 *0101, purified HLA DRB3*0101
T4 construct: purified from EBV transformed homozygous cell lines or single MHC allele transfected 721.221, C1R, or fibroblast lines; made in house
Experimental: as §2
as §3, with “n-octylglucoside. […] The pH was reduced to 8.0 and the eluates were concentrated by centrifugation in Centriprep 30 concentrators at 2000 rpm (Amicon, Beverly, Mass.).” for “n-octylglucoside.”
as §4, with “Instruments). […] Competitor peptides are tested in 2-4 complete, independent experiments, at concentrations ranging from […].” for “Instruments).”

[7] = target: T5, purified HLA DRB1*0101 (Homo sapiens, UniProt P01903+P01911, A100R/D57E/F55L/F60I/F76Y/I96L/L162R/M171V/P40L/Q125E/R42F/V115G/Y59C); assay: HLA-DR radioligand binding inhibition assay, DRB1*0101; settings: IC50 nM purified HLA DRB1 *0101, purified HLA DRB1*0101
T5 construct: purified from EBV transformed homozygous cell lines or single MHC allele transfected 721.221, C1R, or fibroblast lines; made in house
Method in brief: as §1

[8] = target: T6, purified HLA DRB1*1201 (Homo sapiens, UniProt P01903+P01911, A100R/A169T/D57E/D86V/F55L/H45Y/K41T/L162R/M171V/P40S/Q125H/Q178H/Q39Y/Q99D/R42G/S66L/T262R/V114A/V67L/W38E/Y59H/Y61H/Y89S); assay: HLA-DR radioligand binding inhibition assay, DRB1*1201
T6 construct: purified from EBV transformed homozygous cell lines or single MHC allele transfected 721.221, C1R, or fibroblast lines; made in house
Experimental: as §2
as §3, with “n-octylglucoside. […] The pH was reduced to 8.0 and the eluates were concentrated by centrifugation in Centriprep 30 concentrators at 2000 rpm (Amicon, Beverly, Mass.).” for “n-octylglucoside.”
as §4, with “Instruments). […] Competitor peptides are tested in 2-4 complete, independent experiments, at concentrations ranging from […].” for “Instruments).”

[9] = target: T7, purified HLA DRB1*0401 (Homo sapiens, UniProt P01903+P01911, A100K/A169T/F76Y/I96L/K127E/L162R/M171V/N62H/P40V/Q125Y/R42H/S133A/S149N/S66Y/V115G/V209L/W38E); assay: HLA-DR radioligand binding inhibition assay, DRB1*0401; settings: IC50 nM purified HLA DRB1 *0401, purified HLA DRB1*0401
T7 construct: purified from EBV transformed homozygous cell lines or single MHC allele transfected 721.221, C1R, or fibroblast lines; made in house
Method in brief: as §1

[10] = target: T8, purified HLA DRB1*0802 (Homo sapiens, UniProt P01903+P01911, A100R/A103L/A169T/F76Y/H45Y/I96F/K41T/L162R/M171V/P40S/Q125H/Q178H/Q39Y/Q99D/R218S/R42G/S66Y/V115G/W38E); assay: HLA-DR radioligand binding inhibition assay, DRB1*0802; settings: IC50 nM purified HLA DRB1 *0802, purified HLA DRB1*0802
T8 construct: purified from EBV transformed homozygous cell lines or single MHC allele transfected 721.221, C1R, or fibroblast lines; made in house
Experimental: as §2
as §3, with “n-octylglucoside. […] The pH was reduced to 8.0 and the eluates were concentrated by centrifugation in Centriprep 30 concentrators at 2000 rpm (Amicon, Beverly, Mass.).” for “n-octylglucoside.”
as §4, with “Instruments). […] Competitor peptides are tested in 2-4 complete, independent experiments, at concentrations ranging from […].” for “Instruments).”

[11] = target: T9, purified HLA DRB1*1101 (Homo sapiens, UniProt P01903+P01911, A100R/A169T/A87E/I96F/K41T/L162R/M171V/P40S/Q125H/Q178H/Q39Y/Q99D/R42S/S66Y/T262R/V115G/W38E); assay: HLA-DR radioligand binding inhibition assay, DRB1*1101; settings: IC50 nM purified HLA DRB1 *1101, purified HLA DRB1*1101
T9 construct: purified from EBV transformed homozygous cell lines or single MHC allele transfected 721.221, C1R, or fibroblast lines; made in house
T9 sequence (P01903 26-254, other chains not shown): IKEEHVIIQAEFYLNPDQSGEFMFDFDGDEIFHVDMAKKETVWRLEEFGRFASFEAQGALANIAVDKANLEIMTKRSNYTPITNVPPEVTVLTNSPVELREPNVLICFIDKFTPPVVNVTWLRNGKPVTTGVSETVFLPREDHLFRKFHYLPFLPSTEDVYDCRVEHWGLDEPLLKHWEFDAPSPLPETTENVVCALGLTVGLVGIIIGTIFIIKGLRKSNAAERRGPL
Method in brief: as §1

[12] = target: T10, purified HLA DRB1*0404 (Homo sapiens, UniProt P01903+P01911, A100R/A169T/F76Y/I96L/K127E/L162R/M171V/N62H/P40V/Q125Y/R42H/S133A/S149N/S66Y/V209L/W38E); assay: HLA-DR radioligand binding inhibition assay, DRB1*0404; settings: IC50 nM purified HLA DRB1 *0404, purified HLA DRB1*0404
T10 construct: purified from EBV transformed homozygous cell lines or single MHC allele transfected 721.221, C1R, or fibroblast lines; made in house
Method in brief: as §1

Total XRN [2] | IC50 [5] [nM] | IC50 [6] [nM] | IC50 [8] [nM] | IC50 [10] [nM] | SMILES | naturally processed and presented antigen [1] | other results
12 |  |  |  |  | CC[C@H](C)[C@H](NC(=O)[C@H](CCCNC(=N)N)NC(=O)[C@H](CC(C)C)NC(=O)[C@H](CCCNC(=N)N)NC(=O)[C@H](CCC(N)=O)NC(=O)[C@H](CC(C)C)NC(=O)[C@@H]1CCCN1C(=O)[C@@H](NC(=O)[C@H](CCC(N)=O)NC(=O)[C@H](CCCNC(=N)N)NC(=O)[C@@H](NC(=O)[C@H](CCC(N)=O)NC(=O)[C@H](CC(N)=O)NC(=O)[C@@H](N)Cc1c[nH]cn1)C(C)C)C(C)C)C(=O)N[C@H](C(=O)O)C(C)C [Peptide 9019.0034] | naturally processed and presented antigens | 
 | 7860 | > 20000 | 1560 | 263 | CC[C@H](C)[C@H](NC(=O)[C@H](CS)NC(=O)[C@H](Cc1c[nH]c2ccccc12)NC(=O)[C@@H](N)CCCNC(=N)N)C(=O)N1CCC[C@H]1C(=O)N[C@@H](Cc1c[nH]c2ccccc12)C(=O)N[C@@H](CCC(N)=O)C(=O)N[C@@H](CCCNC(=N)N)C(=O)N[C@@H](CC(C)C)C(=O)N[C@@H](CC(C)C)C(=O)N[C@@H](CC(C)C)C(=O)N[C@H](C(=O)N[C@@H](C)C(=O)N[C@@H](CO)C(=O)N[C@@H](CC(C)C)C(=O)O)[C@@H](C)O [Peptide 9019.0104] |  | IC50 [3]: 4010 nM; IC50 [4]: 61 nM; IC50 [7]: 1470 nM; IC50 [9]: 426 nM
 | 74 | > 20000 | > 20000 | > 20000 | CC[C@H](C)[C@H](NC(=O)[C@H](CO)NC(=O)[C@@H]1CCCN1C(=O)[C@H](CCCCN)NC(=O)[C@@H]1CCCN1C(=O)[C@H](CC(C)C)NC(=O)[C@H](CCC(=O)O)NC(=O)[C@H](C)NC(=O)[C@H](CO)NC(=O)[C@@H](NC(=O)[C@@H](NC(=O)[C@@H](NC(=O)[C@@H](N)[C@@H](C)O)[C@@H](C)CC)[C@@H](C)O)C(C)C)C(=O)N[C@@H](CO)C(=O)N[C@@H](CO)C(=O)O [Peptide 9019.0132] |  | IC50 [11]: > 20000 nM; IC50 [12]: 7000 nM
 | > 20000 | > 20000 | > 20000 | > 20000 | CSCC[C@H](NC(=O)[C@H](C)NC(=O)[C@@H](N)CCCNC(=N)N)C(=O)N[C@@H](CC(C)C)C(=O)N[C@@H](CCCCN)C(=O)N[C@@H](C)C(=O)N[C@@H](CCC(=O)O)C(=O)N[C@@H](CCC(=O)O)C(=O)N[C@H](C(=O)N[C@@H](CS)C(=O)N[C@@H](C)C(=O)N1CCC[C@H]1C(=O)N[C@@H](CO)C(=O)N[C@H](C(=O)N[C@@H](CO)C(=O)O)C(C)C)[C@@H](C)O [Peptide 9019.0148] |  | IC50 [9]: 360 nM
10 |  |  |  |  | CC(C)C[C@H](NC(=O)[C@H](CC(C)C)NC(=O)[C@H](CC(C)C)NC(=O)[C@H](CC(C)C)NC(=O)[C@H](CC(C)C)NC(=O)[C@H](CC(C)C)NC(=O)[C@@H]1CCCN1C(=O)[C@H](CC(C)C)NC(=O)[C@H](CC(C)C)NC(=O)[C@@H]1CCCN1C(=O)[C@H](CC(C)C)NC(=O)[C@@H](N)CC(C)C)C(=O)NCC(=O)N[C@@H](C)C(=O)N[C@@H](CO)C(=O)O [Peptide 9019.0176] | naturally processed peptides | 
4 |  |  |  |  | CC(C)C[C@H](NC(=O)[C@H](CC(C)C)NC(=O)[C@H](CC(C)C)NC(=O)[C@H](CC(C)C)NC(=O)[C@H](CC(C)C)NC(=O)[C@H](CC(C)C)NC(=O)[C@@H]1CCCN1)C(=O)NCC(=O)N[C@@H](C)C(=O)N[C@@H](CO)C(=O)NCC(=O)NCC(=O)NCC(=O)NCC(=O)NCC(=O)O [Peptide 9019.0177] | naturally processed peptides | 
9 |  |  |  |  | CC[C@H](C)[C@H](NC(=O)[C@H](CC(C)C)NC(=O)[C@H](CCCCN)NC(=O)CNC(=O)[C@@H](N)[C@@H](C)O)C(=O)N[C@@H](CCC(N)=O)C(=O)NCC(=O)N[C@@H](C)C(=O)N1CCC[C@H]1C(=O)N[C@H](C(=O)N[C@H](C(=O)N[C@@H](CCCNC(=N)N)C(=O)NCC(=O)N[C@@H](CC(=O)O)C(=O)N1CCC[C@H]1C(=O)O)[C@@H](C)CC)[C@@H](C)O [Peptide 9019.0192] | naturally processed peptides | 

Reference: patent publication US20140377340A1, “HLA-DR BINDING PEPTIDES AND THEIR USES” (priority 2007, published 2014)
